Results as given in the NIST ThermoML archive (doi:10.1021/je2007549).
± gives the expanded uncertainty stated by the source.

Assay: xn = mol fraction of the nth substance listed
Conditions: 101 kPa, Liquid; for electrical conductivity: Direct current cell with electrodes; for viscosity: Falling or rolling sphere viscometry; for mass density: Vibrating tube method

CC(C)C[C@H](N)C(=O)[O-].CCCC[P+](CCCC)(CCCC)CCCN [(3-aminopropyl)tributylphosphonium L-leucinate] + O
Conditions | electrical conductivity [S/m] | mass density [kg/m3] | viscosity [mPa·s]
298.15 K, x2 = 0 | 0.008 ± 0.00016 | 971.86 ± 5.1 | 1227.9 ± 140
298.15 K, x2 = 0.25 | 0.0114 ± 0.00023 | 973.97 ± 3.2 | 920.24 ± 93
298.15 K, x2 = 0.5 | 0.0173 ± 0.00035 | 978.04 ± 1.8 | 599.52 ± 53
298.15 K, x2 = 0.75 | 0.0395 ± 0.00079 | 987.11 ± 0.82 | 244.81 ± 16
303.15 K, x2 = 0 | 0.0108 ± 0.00022 | 968.8 ± 5.1 | 855.26 ± 85
303.15 K, x2 = 0.25 | 0.0154 ± 0.00031 | 970.91 ± 3.2 | 629.98 ± 57
303.15 K, x2 = 0.5 | 0.0232 ± 0.00046 | 974.9 ± 1.8 | 407.91 ± 32
303.15 K, x2 = 0.75 | 0.0515 ± 0.001 | 983.89 ± 0.82 | 174.05 ± 10
313.15 K, x2 = 0 | 0.0185 ± 0.00037 | 962.68 ± 5 | 417.9 ± 34
313.15 K, x2 = 0.25 | 0.0254 ± 0.00051 | 964.75 ± 3.2 | 308.75 ± 23
313.15 K, x2 = 0.5 | 0.0362 ± 0.00072 | 968.61 ± 1.8 | 209.07 ± 13
313.15 K, x2 = 0.75 | 0.0795 ± 0.0016 | 977.44 ± 0.81 | 94.21 ± 4.5
323.15 K, x2 = 0 | 0.0291 ± 0.00058 | 956.54 ± 5 | 224.29 ± 15
323.15 K, x2 = 0.25 | 0.0379 ± 0.00076 | 958.56 ± 3.1 | 169.8 ± 10
323.15 K, x2 = 0.5 | 0.0515 ± 0.001 | 962.52 ± 1.8 | 116.62 ± 6
323.15 K, x2 = 0.75 | 0.116 ± 0.0023 | 970.88 ± 0.8 | 55.71 ± 2.4
333.15 K, x2 = 0 | 0.0414 ± 0.00083 | 950.54 ± 4.9 | 130.46 ± 7.4
333.15 K, x2 = 0.25 | 0.0542 ± 0.0011 | 952.54 ± 3.1 | 101.73 ± 5.2
333.15 K, x2 = 0.5 | 0.0735 ± 0.0015 | 956.26 ± 1.7 | 72.42 ± 3.3
333.15 K, x2 = 0.75 | 0.161 ± 0.0032 | 964.27 ± 0.8 | 35.35 ± 1.5
343.15 K, x2 = 0 | 0.0605 ± 0.0012 | 944.58 ± 4.8 | 81.01 ± 4.1
343.15 K, x2 = 0.25 | 0.0761 ± 0.0015 | 946.54 ± 3.1 | 65.08 ± 3.1
343.15 K, x2 = 0.5 | 0.104 ± 0.0021 | 949.99 ± 1.7 | 47.47 ± 2.1
343.15 K, x2 = 0.75 | 0.214 ± 0.0043 | 957.61 ± 0.79 | 23.97 ± 1

CCCC[P+](CCCC)(CCCC)CCCN.C[C@H](N)C(=O)[O-] [(3-aminopropyl)tributylphosphonium L-alaninate] + O
Conditions | electrical conductivity [S/m] | mass density [kg/m3] | viscosity [mPa·s]
298.15 K, x2 = 0 | 0.0141 ± 0.00028 | 986.75 ± 5.3 | 804.88 ± 79
298.15 K, x2 = 0.25 | 0.0244 ± 0.00049 | 988.47 ± 3.3 | 597.85 ± 53
298.15 K, x2 = 0.5 | 0.0337 ± 0.00067 | 991.4 ± 1.9 | 429.73 ± 34
298.15 K, x2 = 0.75 | 0.0647 ± 0.0013 | 999.98 ± 0.84 | 208.66 ± 13
303.15 K, x2 = 0 | 0.0209 ± 0.00042 | 983.72 ± 5.2 | 561.4 ± 50
303.15 K, x2 = 0.25 | 0.032 ± 0.00064 | 985.39 ± 3.3 | 417.93 ± 33
303.15 K, x2 = 0.5 | 0.0439 ± 0.00088 | 988.27 ± 1.8 | 304.2 ± 22
303.15 K, x2 = 0.75 | 0.0859 ± 0.0017 | 996.76 ± 0.83 | 150.37 ± 8.2
313.15 K, x2 = 0 | 0.032 ± 0.00064 | 977.65 ± 5.2 | 291.07 ± 21
313.15 K, x2 = 0.25 | 0.0487 ± 0.00097 | 979.18 ± 3.3 | 222.26 ± 15
313.15 K, x2 = 0.5 | 0.0703 ± 0.0014 | 982.01 ± 1.8 | 163.31 ± 9.4
313.15 K, x2 = 0.75 | 0.134 ± 0.0027 | 990.22 ± 0.83 | 83.45 ± 3.8
323.15 K, x2 = 0 | 0.0464 ± 0.00093 | 971.62 ± 5.1 | 164.61 ± 10
323.15 K, x2 = 0.25 | 0.0727 ± 0.0015 | 973.04 ± 3.2 | 127.07 ± 6.9
323.15 K, x2 = 0.5 | 0.105 ± 0.0021 | 975.81 ± 1.8 | 95.01 ± 4.6
323.15 K, x2 = 0.75 | 0.195 ± 0.0039 | 983.57 ± 0.82 | 50.38 ± 2.1
333.15 K, x2 = 0 | 0.0649 ± 0.0013 | 965.71 ± 5 | 106.7 ± 5.7
333.15 K, x2 = 0.25 | 0.101 ± 0.002 | 966.97 ± 3.2 | 78.92 ± 3.8
333.15 K, x2 = 0.5 | 0.147 ± 0.0029 | 969.57 ± 1.8 | 59.3 ± 2.6
333.15 K, x2 = 0.75 | 0.265 ± 0.0053 | 976.99 ± 0.81 | 32.59 ± 1.4
343.15 K, x2 = 0 | 0.0884 ± 0.0018 | 959.97 ± 5 | 65.96 ± 3.3
343.15 K, x2 = 0.25 | 0.142 ± 0.0028 | 960.89 ± 3.1 | 53.07 ± 2.4
343.15 K, x2 = 0.5 | 0.193 ± 0.0039 | 963.3 ± 1.8 | 39.29 ± 1.8
343.15 K, x2 = 0.75 | 0.334 ± 0.0067 | 970.15 ± 0.8 | 22.27 ± 0.95
